Measured values from US11111214B2 (priority 2013, dated 2021).

What was measured:
[1] = target: T1, recombinant human kappa (KOR) opioid receptor (Homo sapiens, UniProt P41145); experiment: biochemical; assay type: binding
T1 construct: expressed in transfected cells; host or cells: CHO-K1 cell membranes

[2] = target: T2, KOR (kappa opioid receptor) (Homo sapiens, UniProt P41145); experiment: cell-based
T2 construct: expressed in transfected cells; host or cells: CHO-K1 cells stably expressing KOR
T2 sequence (P41145 whole entry): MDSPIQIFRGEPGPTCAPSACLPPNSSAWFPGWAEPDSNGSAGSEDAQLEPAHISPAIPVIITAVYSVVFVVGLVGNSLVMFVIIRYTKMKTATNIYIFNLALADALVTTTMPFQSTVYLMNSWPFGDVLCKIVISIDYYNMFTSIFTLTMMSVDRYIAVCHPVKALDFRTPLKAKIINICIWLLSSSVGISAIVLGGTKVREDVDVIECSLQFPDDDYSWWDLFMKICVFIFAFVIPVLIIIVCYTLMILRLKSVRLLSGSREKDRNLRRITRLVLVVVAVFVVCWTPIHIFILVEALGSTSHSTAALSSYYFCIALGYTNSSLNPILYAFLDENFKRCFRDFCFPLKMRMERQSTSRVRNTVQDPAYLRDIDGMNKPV

[3] = target: T3, recombinant human mu (MOR) opioid receptor (Homo sapiens, UniProt P35372); experiment: biochemical; assay type: binding; conditions: for inhibition at 10 µM: read-out: Mu receptor % inhibition at single concentration, % inhibition @ 10 μM
T3 construct: expressed in transfected cells; host or cells: CHO-K1 cell membranes
T3 sequence (P35372 whole entry): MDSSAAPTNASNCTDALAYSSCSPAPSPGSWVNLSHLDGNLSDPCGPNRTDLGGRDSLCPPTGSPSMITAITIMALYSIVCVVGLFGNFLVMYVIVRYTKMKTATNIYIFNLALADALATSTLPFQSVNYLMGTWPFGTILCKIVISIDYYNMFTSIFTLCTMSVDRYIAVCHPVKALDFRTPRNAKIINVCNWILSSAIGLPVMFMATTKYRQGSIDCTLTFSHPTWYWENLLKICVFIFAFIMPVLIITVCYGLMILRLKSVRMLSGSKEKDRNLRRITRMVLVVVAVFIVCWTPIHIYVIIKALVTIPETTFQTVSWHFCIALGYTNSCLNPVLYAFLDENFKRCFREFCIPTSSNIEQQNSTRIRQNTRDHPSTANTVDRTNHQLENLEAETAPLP

T1 sequence (P41145 whole entry): as the sequence (P41145 whole entry) above

Row | SMILES | IC50 [1] [nM] | Ki [1] [nM] | EC50 [2] [nM] | inhibition at 10 µM [3] [%] | IC50 [3] [nM]
1 | COCCOCC(=O)Nc1cccc([C@@H](CN2CC[C@H](O)C2)N(C)C(=O)C(c2ccccc2)c2ccccc2)c1 [compound 11, N-[(1S)-2-[(3S)-3-Hydroxypyrrolidin-1-yl]-1-(3-{[(2-methoxyethoxy)acetyl]amino}phenyl)ethyl]-N-methyl-2,2-diphenylacetamide] | 58.1 | 13.4 | 5.02 | 45.2 | 
2 | CN(C(=O)Cc1ccc(Cl)c(Cl)c1)[C@H](CN1CCCC1)c1cccc(NS(=O)(=O)C2CS(=O)(=O)CC2O)c1 (stereo partly drawn) [compound 22, 2-(3,4-dichlorophenyl)-N-[(1S)-1-(3-{[(4-hydroxy-1,1-dioxidotetrahydrothiophen-3-yl)sulfonyl]amino}phenyl)-2-(pyrrolidin-1-yl)ethyl]-N-methylacetamide] | 0.32 | 0.07 | 0.03 | 90.2 | 
3 | COCCOCCOCCO[C@H]1CCN(C[C@H](c2cccc(NS(C)(=O)=O)c2)N(C)C(=O)Cc2ccc(Cl)c(Cl)c2)C1 [compound 17, 2-(3,4-dichlorophenyl)-N-[(1S)-2-[(3S)-3-{2-[2-(2-methoxyethoxy)ethoxy]ethoxy}pyrrolidin-1-yl]-1-{3-[(methylsulfonyl)amino]phenyl}ethyl]-N-methylacetamide] | 1570 | 362 | 67.3 | 81.9 | 
4 | COCCOCCOCCOCCOCCNC(=O)Nc1cccc([C@@H](CN2CCCC2)N(C)C(=O)C(c2ccc(Cl)cc2)c2ccc(Cl)cc2)c1 [compound 16, 2,2-Bis(4-chlorophenyl)-N-methyl-N-[(1S)-1-{3-[(2,5,8,11,14-pentaoxahexadecan-16-ylcarbamoyl)amino]phenyl}-2-(pyrrolidin-1-yl)ethyl]acetamide] | 62.7 | 14.5 | 15.1 | 27.1 | 
5 | CN(C(=O)Cc1ccc(Cl)c(Cl)c1)[C@H](CN1CC[C@H](OCCOCCOCCO)C1)c1ccccc1 [compound 27, 2-(3,4-Dichlorophenyl)-N-{(1S)-2-[(3S)-3-{2-[2-(2-hydroxyethoxy)ethoxy]ethoxy}pyrrolidin-1-yl]-1-phenylethyl}-N-methylacetamide] | 106 | 13.8 | 4.38 | 50.4 | 9220
6 | COCCOCCOCCOCCOCCO[C@H]1CCN(C[C@H](c2ccccc2)N(C)C(=O)C(c2ccccc2)c2ccccc2)C1 [compound 9, N-Methyl-N-{(1S)-2-[(3S)-3-(2,5,8,11,14-pentaoxahexadecan-16-yloxy)pyrrolidin-1-yl]-1-phenylethyl}-2,2-diphenylacetamide] | 8970 | 2070 | 178 | 36.9 | 
7 | COCCOCCOCCOCCOCCOc1ccc(CC(=O)N(C)[C@H](CN2CCCC2)c2ccccc2)cc1 [compound 13, N-Methyl-2-[4-(2,5,8, 11, 14-pentaoxahexadecan-16-yloxy)phenyl]-N-[(1S)-1-phenyl-2-(pyrrolidin-1-yl)ethyl]acetamide] | 1320 | 305 |  | 69.9 | 
8 | COCCOCCOCCO[C@H]1CCN(C[C@H](c2ccc(C(F)(F)F)cc2)N(C)C(=O)Cc2ccc(Cl)c(Cl)c2)C1 [compound 33, 2-(3,4-Dichlorophenyl)-N-{(1S)-2-[(3S)-3-{2-[2-(2-methoxyethoxy)ethoxy]ethoxy}pyrrolidin-1-yl]-1-[4-(trifluoromethyl)phenyl]ethyl}-N-methylacetamide] | 1240 | 285 |  | 84.1 | 
9 | COCCOCCOCCOCCOCCO[C@H]1CCN(C[C@H](c2ccccc2)N(C)C(=O)Cc2ccccc2[N+](=O)[O-])C1 [compound 41, N—((S)-2-((S)-3-(2,5,8,11,14-pentaoxahexadecan-16-yloxy)pyrrolidin-1-yl)-1-phenylethyl)-N-methyl-2-(2-nitrophenyl)acetamide] | 5200 | 1200 |  | 20.5 | 
